Measurements published in patent US20250282799A1, “SUBSTITUTED PYRIDO[4,3-d]PYRIMIDINES AS KRAS MODULATORS” (Alterome Therapeutics, Inc., priority 2023, published 2025).

The compounds below were run on KRAS G12V dependent lung adenocarcinoma cell line, NCI-H441 (assay: Cellular pERK (Thr202/Tyr204) FRET/HTRF assay). Details: Homo sapiens, NCI-H441, cellular pERK (Thr202/Tyr204) HTRF, NCI-H441 cells.
Type: cell-based
Method in brief: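 IC50 reflects inhibition of ERK1/2 Thr202/Tyr204 phosphorylation, quantified by HTRF after a 1 hr treatment of KRAS G12V-driven NCI-H441 cells. DMSO served as negative control.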

`[2H]C([2H])(Oc1nc(N2CCOC[C@H]3[C@H](F)[C@H]32)c2cnc(-c3nc(N)cc(C)c3C(F)(F)F)c(F)c2n1)[C@@]12CCCN1C[C@H](F)C2` [Example 186, 6-(8-fluoro-4-((1S,7S,8S)-8-fluoro-5-oxa-2-azabicyclo[5.1.0]octan-2-yl)-2-(((2R,7aS)-2-fluorotetrahydro-1H-pyrrolizin-7a(5H)-yl)methoxy-d2)pyrido[4,3-d]pyrimidin-7-yl)-4-methyl-5-(trifluoromethyl)pyridin-2-amine] and `[2H]C([2H])(Oc1nc(N2CCOC[C@H]3[C@H](F)[C@H]32)c2cc(F)c(-c3nc(N)cc(C)c3C(F)(F)F)c(F)c2n1)[C@@]12CCCN1C[C@H](F)C2` [Example 175, 6-(6,8-difluoro-4-((1S,7S,8S)-8-fluoro-5-oxa-2-azabicyclo[5.1.0]octan-2-yl)-2-(((2R,7aS)-2-fluorotetrahydro-1H-pyrrolizin-7a(5H)-yl)methoxy-d2)quinazolin-7-yl)-4-methyl-5-(trifluoromethyl)pyridin-2-amine] fall in the same range of IC50: 0.05 to 0.5 µM for the first, 0.05 to 0.5 µM for the second.

`[2H]C([2H])(Oc1nc(N2CCOC[C@H]3[C@H](F)[C@H]32)c2cnc(-c3cc(N)cc4ccc(F)c(C#C)c34)c(F)c2n1)[C@@]12CCCN1[C@H](C)[C@H](F)C2` [Example 333, 5-Ethynyl-6-fluoro-4-(8-fluoro-2-(((2R,3R,7aS)-2-fluoro-3-methyltetrahydro-1H-pyrrolizin-7a(5H)-yl)methoxy-d2)-4-((1S,7S,8S)-8-fluoro-5-oxa-2-azabicyclo[5.1.0]octan-2-yl)pyrido[4,3-d]pyrimidin-7-yl)naphthalen-2-amine] and `C#Cc1c(F)ccc2cc(N)cc(-c3ncc4c(N5CCOC[C@H]6[C@H](F)[C@H]65)nc(OC[C@@]56CCCN5[C@H](C)[C@H](F)C6)nc4c3F)c12` [Example 277, 5-ethynyl-6-fluoro-4-(8-fluoro-2-(((2R,3R,7aS)-2-fluoro-3-methyltetrahydro-1H-pyrrolizin-7a(5H)-yl)methoxy)-4-((1S,7S,8S)-8-fluoro-5-oxa-2-azabicyclo[5.1.0]octan-2-yl)pyrido[4,3-d]pyrimidin-7-yl)naphthalen-2-amine] cannot be ordered by IC50: < 0.05 µM for the first, < 0.05 µM for the second.

`C#Cc1c(F)ccc2cc(N)cc(-c3ncc4c(N5CCOC[C@H]6[C@H](F)[C@H]65)nc(OC[C@@]56C[C@H](C)CN5CCC65CC5)nc4c3F)c12` (single isomer, unassigned) [Example 243] and `C#Cc1c(F)ccc2cc(N)cc(-c3ncc4c(N5CCOC[C@H]6[C@H](F)[C@H]65)nc(OC[C@@]56CC7(CC7)CN5CCC65CC5)nc4c3F)c12` [Example 207, 4-(2-(((S)-dihydro-5′H-dispiro[cyclopropane-1,1′-pyrrolizine-6′,1″- cyclopropan]-7a′(7′H)-yl)methoxy)-8-fluoro-4-((1S,7S,8S)-8-fluoro-5-oxa-2-azabicyclo[5.1.0]octan-2-yl)pyrido[4,3-d]pyrimidin-7-yl)-5-ethynyl-6-fluoronaphthalen-2-amine] cannot be ordered by IC50: < 0.05 µM for the first, < 0.05 µM for the second.

`C#Cc1c(F)c(F)cc2cccc(-c3ncc4c(N5CCOC[C@H]6[C@H](F)[C@H]65)nc(OC[C@]56CCCN5CC(=C(F)F)C6)nc4c3F)c12` [Example 107, (1S,7S,8S)-2-(2-(((R)-2-(difluoromethylene)tetrahydro-1H-pyrrolizin-7a(5H)-yl)methoxy)-7-(8-ethynyl-6,7-difluoronaphthalen-1-yl)-8-fluoropyrido[4,3-d]pyrimidin-4-yl)-8-fluoro-5-oxa-2-azabicyclo[5.1.0]octane] and `C#Cc1c(F)ccc2cc(O)cc(-c3ncc4c(N5CCOC[C@H]6[C@H](F)[C@H]65)nc(OC[C@]56C[C@@H](F)CN5C[C@@H](CN)C6)nc4c3F)c12` [Example 198, 4-(2-(((2R,6R,7aS)-2-(aminomethyl)-6-fluorotetrahydro-1H-pyrrolizin-7a(5H)-yl)methoxy)-8-fluoro-4-((1S,7S,8S)-8-fluoro-5-oxa-2-azabicyclo[5.1.0]octan-2-yl)pyrido[4,3-d]pyrimidin-7-yl)-5-ethynyl-6-fluoronaphthalen-2-ol] fall in the same range of IC50: 0.05 to 0.5 µM for the first, 0.05 to 0.5 µM for the second.

`[2H]C([2H])(F)Oc1c(F)cc(F)c2cccc(-c3ncc4c(N5CCOC[C@H]6[C@H](F)[C@H]65)nc(OC([2H])([2H])[C@@]56CCCN5C[C@H](F)C6)nc4c3F)c12` [Example 151, (1S,7S,8S)-2-(7-(5,7-difluoro-8-(fluoromethoxy-d2)naphthalen-1-yl)-8-fluoro-2-(((2R,7aS)-2-fluorotetrahydro-1H-pyrrolizin-7a(5H)-yl)methoxy-d2)pyrido[4,3-d]pyrimidin-4-yl)-8-fluoro-5-oxa-2-azabicyclo[5.1.0]octane] and `[2H]C([2H])([2H])Oc1c(F)c(F)c(F)c2cc(N)cc(-c3ncc4c(N5CCOC([2H])([2H])[C@H]6[C@H](F)[C@H]65)nc(OC([2H])([2H])[C@@]56CCCN5C[C@H](F)C6)nc4c3F)c12` [Example 124, 6,7,8-trifluoro-4-(8-fluoro-4-((1S,7S,8S)-8-fluoro-5-oxa-2-azabicyclo[5.1.0]octan-2-yl-6,6-d2)-2-(((2R,7aS)-2-fluorotetrahydro-1H-pyrrolizin-7a(5H)-yl)methoxy-d2)pyrido[4,3-d]pyrimidin-7-yl)-5-(methoxy-d3)naphthalen-2-amine] cannot be ordered by IC50: < 0.05 µM for the first, < 0.05 µM for the second.

First: Nc1cc(Cl)c(C(F)(F)F)c(-c2ncc3c(N4CCCC[C@H]5[C@H](F)[C@H]54)nc(OC[C@]45CC(=C(F)F)CN4CCC54CC4)nc3c2F)c1 [Example 411, 3-chloro-5-(2-(((R)-6′-(difluoromethylene)tetrahydrospiro [cyclopropane-1,1′-pyrrolizin]-7a′(5′H)-yl)methoxy)-8-fluoro-4-((1S,7R,8S)-8-fluoro-2-azabicyclo[5.1.0]octan-2-yl)pyrido[4,3-d]pyrimidin-7-yl)-4-(trifluoromethyl)aniline]
Second: C#Cc1c(F)ccc2cc(N)cc(-c3ncc4c(N5CCOC[C@H]6[C@H](F)[C@H]65)nc(OC[C@]56C[C@@]7(CN5CCC65CC5)CC7(F)F)nc4c3F)c12 (single isomer, unassigned) [Example 218]
The IC50 of the first is higher: 0.5 to 10 µM for the first, < 0.05 µM for the second.

First: [2H]C([2H])(Oc1nc(N2CCOC[C@@H]3[C@@H](Cl)[C@@H]32)c2cnc(-c3cc(N)cc4cccc(C#C)c34)c(F)c2n1)[C@@]12CCCN1[C@H](C)[C@H](F)C2 [Example 346, 4-(4-((1R,7R,8R)-8-chloro-5-oxa-2-azabicyclo[5.1.0]octan-2-yl)-8-fluoro-2-(((2R,3R,7aS)-2-fluoro-3-methyltetrahydro-1H-pyrrolizin-7a(5H)-yl)methoxy-d2)pyrido[4,3-d]pyrimidin-7-yl)-5-ethynylnaphthalen-2-amine]
Second: C#Cc1c(Cl)ccc2cc(N)cc(-c3ncc4c(N5CCOC[C@H]6[C@H](F)[C@H]65)nc(OC[C@@H]5CCCN5C)nc4c3F)c12 [Example 296, 6-chloro-5-ethynyl-4-(8-fluoro-4-((1S,7S,8S)-8-fluoro-5-oxa-2-azabicyclo[5.1.0]octan-2-yl)-2-(((S)-1-methylpyrrolidin-2-yl)methoxy)pyrido[4,3-d]pyrimidin-7-yl)naphthalen-2-amine]
The IC50 of the first is higher: 0.5 to 10 µM for the first, < 0.05 µM for the second.

In the case of `[2H]C([2H])(Oc1nc(N2CCOC[C@H]3[C@H](F)[C@H]32)c2c(OC(C)C)nc(-c3cc(N)cc4ccc(F)c(C#C)c34)c(F)c2n1)[C@@]12CCCN1C[C@H](F)C2` [Example 323, 5-ethynyl-6-fluoro-4-(8-fluoro-4-((1S,7S,8S)-8-fluoro-5-oxa-2-azabicyclo[5.1.0]octan-2-yl)-2-(((2R,7aS)-2-fluorotetrahydro-1H-pyrrolizin-7a(5H)-yl)methoxy-d2)-5-isopropoxypyrido[4,3-d]pyrimidin-7-yl)naphthalen-2-amine], the IC50 is reported as < 0.05 µM.

Same assay, conditions: Homo sapiens, NCI-H441, cellular pERK HTRF, NCI-H441 (KRAS G12V) cells

For `C#Cc1c(F)ccc2cc(N)cc(-c3ncc4c(N5CCOCC6C(Cl)C65)nc(OC[C@]56CC(=C)CN5CCC65CC5)nc4c3C)c12` (stereo partly drawn) [Example 444, 4-(4-(8-chloro-5-oxa-2-azabicyclo[5.1.0]octan-2-yl)-8-methyl-2-(((R)-6′-methylenetetrahydrospiro[cyclopropane-1,1′-pyrrolizin]-7a′(5′H)-yl)methoxy)pyrido[4,3-d]pyrimidin-7-yl)-5-ethynyl-6-fluoronaphthalen-2-amine], the IC50 was < 0.05 µM.

Same assay, conditions: Homo sapiens, NCI-H441, pERK HTRF, NCI-H441 cells (KRAS G12V)

`[2H]C([2H])(Oc1nc(N2CCOC[C@@H]3C[C@@H]32)c2cnc(-c3cc(N)cc4cc(F)c(F)c(C#C)c34)c(F)c2n1)[C@@]12CCCN1C[C@H](F)C2` [Example 61, 4-(4-((1S,7R)-5-Oxa-2-azabicyclo[5.1.0]octan-2-yl)-8-fluoro-2-(((2R,7aS)-2-fluorotetrahydro-1H-pyrrolizin-7a(5H)-yl)methoxy-d2)pyrido[4,3-d]pyrimidin-7-yl)-5-ethynyl-6,7-difluoronaphthalen-2-amine] gave an IC50 of 0.5 to 10 µM.

Same assay, conditions: cellular pERK HTRF, NCI-H441 (KRAS G12V) cells

`[2H]C([2H])(Oc1nc(N2CCOC[C@H]3[C@H](F)[C@H]32)c2cc(F)c(-c3cc(O)cc4ccc(F)c(C#C)c34)c(C)c2n1)[C@@]12CCCN1C[C@H](F)C2` (atropisomer, axis not shown; (aS)) [Example 467, 5-Ethynyl-6-fluoro-4-((R)-6-fluoro-4-((1S,7S,8S)-8-fluoro-5-oxa-2-azabicyclo[5.1.0]octan-2-yl)-2-(((2R,7aS)-2-fluorotetrahydro-1H-pyrrolizin-7a(5H)-yl)methoxy-d2)-8-methylquinazolin-7-yl)naphthalen-2-ol] and `[2H]C([2H])(Oc1nc(N2CCOC[C@H]3[C@H](F)[C@H]32)c2cc(C#N)c(-c3ccc(F)c4sc(N)c(C#N)c34)c(C)c2n1)[C@@]12CCCN1C[C@H](F)C2` (atropisomer, axis not shown; (aS)) [Example 441, (S)-7-(2-amino-3-cyano-7-fluorobenzo[b]thiophen-4-yl)-4-((1S,7S,8S)-8-fluoro-5-oxa-2-azabicyclo[5.1.0]octan-2-yl)-2-(((2R,7aS)-2-fluorotetrahydro-1H-pyrrolizin-7a(5H)-yl)methoxy-d2)-8-methylquinazoline-6-carbonitrile] fall in the same range of IC50: 0.5 to 10 µM for the first, 0.5 to 10 µM for the second.
